Data: PubChem BioAssay AID1259411 (Chemical Carcinogenesis Research Information System (CCRIS), 2018)
Activity calls are given as the source filed them. No rule for the calls is given here.

System: rodent carcinogenicity bioassays, tumor incidence
Assay: CCRIS carcinogenicity studies
In short: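 NCI-built, expert-reviewed records of carcinogenicity and related test outcomes (mutagenicity, tumor promotion/inhibition) compiled from published and report sources, historical span 1985-2011, not updated.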

With `ClC1=C(Cl)[C@]2(Cl)[C@@H]3[C@@H]4C[C@@H]([C@H]5O[C@@H]45)[C@@H]3[C@@]1(Cl)C2(Cl)Cl` the carcinogen call (Species: MOUSE, Strain/Sex: B6C3F1/FEMALE, Route: ORAL, Dose: 0, 2.5, 5 PPM IN DIET FOR 80 WK (STUDY DURATION: 90-93 WK), Dose: 0, 2.5, 5 PPM IN DIET FOR 80 WK (STUDY DURATION: 90-93 WK)) was “inactive; negative”, the carcinogen call (Species: MOUSE, Strain/Sex: B6C3F1/MALE, Route: ORAL, Dose: 0, 2.5, 5 PPM IN DIET FOR 80 WK (STUDY DURATION: 90-93 WK), Dose: 0, 2.5, 5 PPM IN DIET FOR 80 WK (STUDY DURATION: 90-93 WK), Tumor Site: Type of Lesion: LIVER: HEPATOCELLULAR CARCINOMA) was “equivocal” and the carcinogen call (Species: MOUSE, Strain/Sex: B6C3F1/MALE, Route: ORAL, Dose: 0, 2.5, 5 PPM IN DIET FOR 80 WK (STUDY DURATION: 91-93 WK), Dose: 0, 2.5, 5 PPM IN DIET FOR 80 WK (STUDY DURATION: 91-93 WK), Tumor Site: Type of Lesion: LIVER: HEPATOCELLULAR CARCINOMA) was “active; positive”. For the same compound, the carcinogen call (Species: MOUSE, Strain/Sex: B6C3F1/MALE, Route: ORAL, Dose: 0, 10 PPM IN DIET FOR 85 WK (STUDY DURATION: 132 WK), Tumor Site: Type of Lesion: LIVER: TUMORS) was “active; positive”, the carcinogen call (Species: MOUSE, Strain/Sex: BALB/MALE, Route: ORAL, Dose: 0, 10 PPM (WT/WT) IN CORN OIL ADDED TO DIET FOR 75 WK (STUDY DURATION: 75 WK), Tumor Site: Type of Lesion: LIVER: HEPATOCELLULAR ADENOMA, HEPATOCELLULAR CARCINOMA) was “active; positive” and the carcinogen call (Species: MOUSE, Strain/Sex: C3H/MALE, Route: ORAL, Dose: 0, 10 PPM IN DIET FOR 85 WK (STUDY DURATION: 132 WK), Tumor Site: Type of Lesion: LIVER: TUMORS) was “active; positive”. For the same compound, the carcinogen call (Species: MOUSE, Strain/Sex: C57BL/MALE, Route: ORAL, Dose: 0, 10 PPM IN DIET FOR 85 WK (STUDY DURATION: 132 WK), Tumor Site: Type of Lesion: LIVER: TUMORS) was “active; positive”, the carcinogen call (Species: MOUSE, Strain/Sex: CF-1/MALE,FEMALE, Route: ORAL, Dose: 0, 0.1, 1, 2.5, 5, 10, 20 PPM IN DIET CONTINUOUSLY, Dose: 0, 0.1, 1, 2.5, 5, 10, 20 PPM IN DIET CONTINUOUSLY, Tumor Site: Type of Lesion: LIVER) was “active; positive” and the carcinogen call (Species: MOUSE, Strain/Sex: CF-1/MALE,FEMALE, Route: ORAL, Dose: 0, 0.1, 1.0, 10 PPM IN DIET FOR 132 WK, Dose: 0, 0.1, 1.0, 10 PPM IN DIET FOR 132 WK, Tumor Site: Type of Lesion: LIVER) was “active; positive”. For the same compound, the carcinogen call (Species: MOUSE, Strain/Sex: CF-1/MALE,FEMALE, Route: ORAL, Dose: 0, 1.25, 2.5, 5, 10, 20 PPM IN DIET FOR 128 WK, Dose: 0, 1.25, 2.5, 5, 10, 20 PPM IN DIET FOR 128 WK, Tumor Site: Type of Lesion: LIVER) was “active; positive”, the carcinogen call (Species: MOUSE, Strain/Sex: CF-1/MALE,FEMALE, Route: ORAL, Dose: 0, 10 PPM IN DIET FOR 2 YR OR MORE, Tumor Site: Type of Lesion: LIVER) was “active; positive” and the carcinogen call (Species: MOUSE, Strain/Sex: CF-1/MALE,FEMALE, Route: ORAL, Dose: 0, 10 PPM IN DIET FOR UP TO 110 WK, Tumor Site: Type of Lesion: LIVER: HEPATOCELLULAR TUMOR) was “active; positive”. The carcinogen call (Species: MOUSE, Strain/Sex: CF-1/MALE,FEMALE, Route: ORAL, Dose: 10 PPM IN DIET FOR 0, 2, 4, 8, 16, 32 OR 64 WK, Tumor Site: Type of Lesion: LIVER: HEPATOCELLULAR TUMOR) was “active; positive”, the carcinogen call (Species: RAT, Strain/Sex: OSBORNE-MENDEL/FEMALE, Route: ORAL, Dose: 0, 29, 65 PPM TWA, IN DIET FOR 59-80 WK (STUDY DURATION: 110-111 WK), Dose: 0, 29, 65 PPM TWA, IN DIET FOR 59-80 WK (STUDY DURATION: 110-111 WK)) was “inactive; negative” and the carcinogen call (Species: RAT, Strain/Sex: OSBORNE-MENDEL/MALE, Route: ORAL, Dose: 0, 29, 65 PPM TWA, IN DIET FOR 59-80 WK (STUDY DURATION: 110-111 WK), Dose: 0, 29, 65 PPM TWA, IN DIET FOR 59-80 WK (STUDY DURATION: 110-111 WK)) was “inactive; negative”.

With `Cc1cccc2ccccc12` the carcinogen call (Species: MOUSE, Strain/Sex: B6C3F1/FEMALE, Route: ORAL, Dose: 0, 0.075, 0.15% IN DIET FOR 81 WK (STUDY DURATION: 81 WK), Dose: 0, 0.075, 0.15% IN DIET FOR 81 WK (STUDY DURATION: 81 WK)) was “inactive; negative” and the carcinogen call (Species: MOUSE, Strain/Sex: B6C3F1/MALE, Route: ORAL, Dose: 0, 0.075, 0.15% IN DIET FOR 81 WK (STUDY DURATION: 81 WK), Dose: 0, 0.075, 0.15% IN DIET FOR 81 WK (STUDY DURATION: 81 WK), Tumor Site: Type of Lesion: LUNG: ADENOMA) was “active; positive”.

In the case of `NNc1ccccc1`, the carcinogen call (Species: MOUSE, Route: ORAL, Tumor Site: Type of Lesion: BLOOD VESSELS, LUNG) is reported as “active; positive”.

For `Cc1ccc(N=Nc2c(O)c(S(=O)(=O)O)cc3cc(S(=O)(=O)O)ccc23)c(C)c1`, the carcinogen call (Species: MOUSE, Route: ORAL, Tumor Site: Type of Lesion: LIVER) was “active; positive” and the carcinogen call (Species: RAT, Route: ORAL, Tumor Site: Type of Lesion: LIVER) was “active; positive”.

In the case of `COP(=S)(OC)SCn1nnc2ccccc2c1=O`, the carcinogen call (Species: MOUSE, Strain/Sex: B6C3F1/FEMALE, Route: ORAL, Dose: 0, 62.5, 125 PPM IN DIET FOR 80 WK (STUDY DURATION: 92-93 WK), Dose: 0, 62.5, 125 PPM IN DIET FOR 80 WK (STUDY DURATION: 92-93 WK)) is reported as “inactive; negative”, the carcinogen call (Species: MOUSE, Strain/Sex: B6C3F1/MALE, Route: ORAL, Dose: 0, 31.3, 62.5 PPM IN DIET FOR 80 WK (STUDY DURATION: 92-93 WK), Dose: 0, 31.3, 62.5 PPM IN DIET FOR 80 WK (STUDY DURATION: 92-93 WK)) is reported as “inactive; negative” and the carcinogen call (Species: RAT, Strain/Sex: OSBORNE-MENDEL/FEMALE, Route: ORAL, Dose: 0, 62.5, 125 PPM IN DIET FOR 80 WK (STUDY DURATION: 114-115 WK), Dose: 0, 62.5, 125 PPM IN DIET FOR 80 WK (STUDY DURATION: 114-115 WK)) is reported as “inactive; negative”. For the same compound, the carcinogen call (Species: RAT, Strain/Sex: OSBORNE-MENDEL/MALE, Route: ORAL, Dose: 0, 78, 156 PPM IN DIET FOR 80 WK (STUDY DURATION: 114-115 WK), Dose: 0, 78, 156 PPM IN DIET FOR 80 WK (STUDY DURATION: 114-115 WK), Tumor Site: Type of Lesion: THYROID GLAND: TUMOR, PANCREAS: ISLET CELL ADENOMA OR CARCINOMA) was “equivocal”, the carcinogen call (Species: Rat, Strain/Sex: Wistar/Female, Route: Oral, Dose: 0, 15, 45 ppm (vehicle= 1% DAB8 peanut oil) in feed for 24 mo., Dose: 0, 15, 45 ppm (vehicle= 1% DAB8 peanut oil) in feed for 24 mo.) was “inactive; negative; purity = 87.2%” and the carcinogen call (Species: Rat, Strain/Sex: Wistar/Male, Route: Oral, Dose: 0, 15, 45 ppm (vehicle= 1% DAB8 peanut oil) in feed for 24 mo., Dose: 0, 15, 45 ppm (vehicle= 1% DAB8 peanut oil) in feed for 24 mo.) was “inactive; negative; purity = 87.2%”.

`CC1=C[C@]2(O[C@@H]3O[C@H](CO)[C@@H](O)[C@H](O)[C@H]3O)C[C@@H](C)C(=O)[C@@H]2[C@](C)(O)C12CC2` was tested, and the carcinogen call (Species: RAT, Strain/Sex: CD-1/FEMALE, Route: INTRAGASTRIC, Dose: 0, 100-150 MG/KG BW IN SALINE 2/WK FOR 8 WK THEN ONCE ON WK 9 (TOTAL DOSE: 0; 339 MG) (STUDY DURATION: 300 D), Dose: 0, 100-150 MG/KG BW IN SALINE 2/WK FOR 8 WK THEN ONCE ON WK 9 (TOTAL DOSE: 0; 339 MG) (STUDY DURATION: 300 D), Tumor Site: Type of Lesion: MAMMARY GLAND: ADENOCARCINOMA, CARCINOMA, SMALL INTESTINE: ADENOCARCINOMA, BLADDER: PAPILLOMA, Tumor Site: Type of Lesion: MAMMARY GLAND: ADENOCARCINOMA, CARCINOMA, SMALL INTESTINE: ADENOCARCINOMA, BLADDER: PAPILLOMA) was “active; positive” and the carcinogen call (Species: RAT, Strain/Sex: CD-1/FEMALE, Route: INTRAGASTRIC, Dose: 0, 780 MG/KG BW IN SALINE ONCE THEN 0, 100-200 MG/KG 1/WK FOR 8 WK (TOTAL DOSE: 0; 300 MG) (STUDY DURATION: 300 D), Dose: 0, 780 MG/KG BW IN SALINE ONCE THEN 0, 100-200 MG/KG 1/WK FOR 8 WK (TOTAL DOSE: 0; 300 MG) (STUDY DURATION: 300 D), Tumor Site: Type of Lesion: MAMMARY GLAND: ADENOCARCINOMA, CARCINOMA, SMALL INTESTINE: ADENOCARCINOMA) was “active; positive”.
